“And” between values parts separate entries of the source, which are not always exact repeats. Identical values can stand only once.
What was measured:
[1] = Subchronic OEA administration in rats (7 days): food intake, body weight, water intake; format: in vivo, rat; conditions: 5 mg per kg i.p. daily for seven days
Procedure: Feeding experiments. Acute experiments. Food intake was measured in 24-h food-deprived rats (Navarro, et al., J. Neurochem., 67:1982-1991 (1996)), administering drugs 15 min before food presentation. Subchronic experiments. Ad libitum fed rats received vehicle injections for three days. On day four, the animals were divided in two equal groups and gave them daily injections of vehicle or OEA (5 mg per kg at 1900 h) for 7 consecutive days, while measuring body weight, food intake and water intake.
In this example, OEA was subchronically administered to rats.

[2] = Food intake in capsaicin-treated (sensory deafferented) rats, Example 2; format: in vivo, rat; conditions: OEA 10 mg per kg i.p.
Procedure: FAE were dissolved in dimethylsulphoxide (DMSO) and administered in 70% DMSO in sterile saline (acute treatments) Or 5% Tween 80/5% propylenglycol in sterile saline (subchronic treatments) (1 ml per kg, i.p.). Capsaicin was administered in 10% Tween 80/10% ethanol/80% saline; SR141716A, SR144528, CCK-8 and CP-93129 in 5% Tween 80/5% propylenglycol/90% saline (1 ml per kg, i.p.).

[3] = Circulating OEA levels after OEA administration (HPLC/MS); format: in vivo; conditions: rat, plasma, ip; 1 hr after 5 mg per kg i.p., rats; baseline 10.1±1.1
Procedure: HPLC/MS analyses. Plasma was prepared from blood obtained by cardiac puncture (Giuffrida, et al., Anal. Biochem., 280:87-93 (2000)) and CSF was collected from the cisterna magna using a 27G ½ needle (Precisionglide, USA). FAEs and NAPE were extracted from tissues with methanol/chloroform and fractionated by column chromatography (Giuffrida, et al., “Lipid Second Messengers” (ed. Laychock, S. G. & Rubin, R. P.) 113-133 (CRC Press LLC, Boca Raton, Fla., 1998)). FAEs were quantified by HPLC/MS, using an isotope dilution method (Giuffrida, et al., Anal. Biochem., 280:87-93 (2000)). Individual NAPE species were identified and quantified by HPLC/MS, using an external standard method (Calignano, et al., Nature, 408:96-101 (2000)).
OEA elicits hypophagia at physiologically relevant doses. […] Thus, the concentrations reached by OEA in blood during starvation can be sufficient to elicit notable behavioral responses.

Hepatocyte = assay: [14C]oleate oxidation to ketone bodies in hepatocytes; format: cell-based, rat; conditions: 10 min incubation
Source text: OEA-like compounds and modulators can be used to modulate fat metabolism. Such compounds can also be assayed for their effect on fatty acid metabolism. The effect of the candidate compound on fatty acid metabolism can be measured by measurements of fatty acid oxidation in primary cultures of liver cells. Hepatocytes may be used to determine the rate of oleate oxidation to ketone bodies and carbon dioxide. Such cells can be isolated from adult rat liver by enzymatic digestion as described by Beynen et al. in Diabetes 28:828 (1979). Cells typically are cultured in suspension and incubated in Krebs-Henseleit's bicarbonate medium supplemented with bovine serum albumin and glucose as described by Guzman & Geelen, Biochem. J., 287:487 (1992). The protein concentration of the cultured cells can be determined and cells seeded in 2 ml media so that 4-6 mg protein per ml is present in the reaction mixture. […] Protein concentration can be determined using a Lowry assay. The rate of oleate conversion into ketone bodies may be expressed as nmol of oleate oxidized per hour per mg protein and may be determined using liquid scintillation counting. […]

Cardiomyocyte = assay: [14C]oleate oxidation to CO2 in cardiomyocytes; format: cell-based, rat; conditions: 30 min incubation
Source text: This example illustrates the effect of OEA on fat metabolism and methods for studying the same. Oleoylethanolamide (OEA) decreases body weight not only by suppressing appetite, but also by possibly enhancing body fat catabolism. The effects of OEA on fatty acid oxidation in major body-fat burning tissues (soleus muscle, liver, cultured cardiac myocytes and astrocytes) was examined. […] In addition, OEA induces a significant mobilization of triacylglycerol stores from primary white adipose tissue cells. Table 4 details the methods and effects of OEA on fatty acid oxidation in these cells. Structure-activity relationship experiments provide evidence that the effect of OEA on skeletal muscle fatty acid oxidation is specific (FIG. 8).

human PPARα = biological target: T1, human PPARα (Homo sapiens, UniProt Q07869); assay: GAL4 chimeric receptor transactivation assay in HeLa cells, PPARα; format: cell-based; conditions: HeLa transactivation assay, 7 hours; read-out: EC50 for PPARα activation
T1 construct: expressed in transfected cells; host or cells: HeLa (clonal reporter line HLR, stably transfected with pFA-PPARα)
T1 sequence (Q07869 239-466 limits assumed): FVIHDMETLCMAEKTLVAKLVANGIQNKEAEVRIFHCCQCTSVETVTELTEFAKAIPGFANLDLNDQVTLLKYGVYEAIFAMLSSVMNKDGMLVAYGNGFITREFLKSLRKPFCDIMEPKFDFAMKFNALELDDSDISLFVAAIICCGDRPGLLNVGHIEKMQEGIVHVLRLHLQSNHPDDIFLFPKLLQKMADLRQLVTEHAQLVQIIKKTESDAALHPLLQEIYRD
Procedure: Eighteen hours following transfection, the culture media was replaced with supplemented DMEM containing hygromycin (100 μg-ml^−1, Calbiochem). After 4 weeks in culture, the surviving clones were isolated and analyzed by luciferase assay. […] The cells were cultured in supplemented DMEM containing hygromycin and G418. For transactivation assays, cells were seeded in 6-well plates (50,000 cells per well) and incubated for 7 hours in supplemented DMEM containing hygromycin and G418, plus appropriate concentrations of test compounds. Dual-luciferase reporter assay system (Promega) and an MLX Microtiter® plate luminometer (Dynex) were used to determine luciferase activity in cell lysates.

iNOS = assay: Transrepression of iNOS expression in mouse jejunum; format: in vivo; conditions: jejunum of C57BL/6J mice; OEA or oleic acid 10, Wy-14643 30 mg kg^−1 i.p.
Procedure: Tissues were stored in RnaLater™ (Ambion), extracted total RNA with TRIzol™ (Invitrogen) and quantified it with Ribogreen™ (Molecular Probes). cDNA was synthesized by using SuperscriptII RNase H-reverse transcriptase (Invitrogen).
Reverse transcription of total RNA (2 μg) was performed using Oligo(dT)12-18 primer (0.2 μg) for 50 min at 42° C. Real Time Quantitative (RTQ) PCR was conducted using an ABI PRISM 7700 sequence detection system (Applied Biosystems). Primer/probe sets were designed using the Primer Express™ software and gene sequences available from the Genebank™ database. Primers and fluorogenic probes were synthesized by TIB (Adelphia). The primer/probe sequences for the mouse genes were:
RNA levels were normalized by using glyceraldehyde 3-phosphate dehydrogenase (GAPDH) as an internal standard. mRNA levels were measured by generating six-point serial standard curves using mouse total RNA. Estimates of relative mRNA abundance (in arbitrary units) were made by using the CT value (Schmittgen et al., 2000). Relative quantifications of RNAs of interest were made by using the 2^ΔCT formula, in which ΔCT was calculated by subtracting the CT value for GAPDH from the CT value for the gene of interest. This formula was validated for each primer/probe set by using six-point serial standard curves.

With `CCCCCCCC/C=C\CCCCCCCC(=O)NCCO` [OEA, Z-2-hydroxyethyl octadec-9-enamide] the cumulative food intake [1] was “small, but significant decrease”, the water intake [1] was “did not affect” and the weight gain [1] was “profound inhibition of weight gain”. For the same compound, the “feeding response in capsaicin-treated rats” value [2] was “failed to respond”, the concentration at 1 hr [3] was 16.1 ± 2.6 nM and the “Stimulatory effect of 10 μM OEA on [14C]oleate oxidation to ketone bodies” value (Hepatocyte) was 21+−6% and 21 ± 6 (n = 4) %. The “Stimulatory effect of 10 μM OEA on [14C]oleate oxidation to CO2” value (Cardiomyocyte) was 37 ± 9 (n = 3) %, the EC50 (human PPARα) was 120 nM and the iNOS expression (iNOS) was “significantly decreased”.

From patent US20050101542A1, “Combination therapy for controlling appetites” (Regents of the University of California, priority 2002, published 2005)
